Assay results: patent US11040036B2, “Pyruvate kinase activators for use in treating blood disorders” (Agios Pharmaceuticals, Inc., priority 2017, dated 2021)

Experiments:
wild type PKR [1] = molecular target: T1, wild type PKR (Homo sapiens, UniProt P30613); experiment: PKR mutant assay (AC50), wild type PKR; type: biochemical; conditions: wild type PKR enzyme; read-out: PKR WT AC50
Procedure: (§1) Example 11. PKR Mutant Assay
(§2) PKR or PKR mutant enzyme solution was diluted into a reaction mix, which contains 1× buffer (100 mM KCl, 50 mM Tris pH 7.5, 5 mM MgCl2) as well as PEP (cont depends on enzyme), 180 μM NADH, 0.5 units LDH, 1 mM DTT, 0.03% BSA; final assay concentrations after 1.11 fold dilution are indicated.
(§3) 2 μL of test compound was added into wells first, and then 180 μL reaction mix was added.
(§4) Reactions mixture with test compound was assembled except for ADP, and plates were stored for 60 minutes at room temperature.
(§5) 20 uL ADP was added to start reaction at room temperature and reaction progress was measured as changes in absorbance at 340 nm wavelength at room temperature.
(§6) Test Compound Preparation:
(§7) Test compound stock was made at 100× concentration in 100% DMSO (10 mM)
(§8) 1 to 3 dilutions were made for 11 points (i.e. 50 μl of first concentration added to 100 μl 100% DMSO to yield 3.33 mM, 50 μl of this added to 100 μl DMSO to yield 1.11 mM, and so forth) • 1 to 100 dilution into assay (2 μl in 200 μl) yielded starting concentration of 100 μM, decreasing 3 fold for 11 points.
(§9) Assay Buffer: 100 mM KCl, 50 mM Tris 7.5, 5 mM MgCl2, 1 ruM DTT, 0.03% BSA
(§10) Reaction Mixture: PKR mutant enzyme: 40-400 ng/well; ADP: 0.2-1.65 mM; PEP: 0.1-0.5 mM; NADH:180 μM; LDH: 0.5 units (Sigma #59023); DTT: 1 mM; BSA: 0.03%.

PKR K410E = PKR K410E (Homo sapiens, UniProt P30613, K410E); experiment: PKR mutant assay (AC50), PKR K410E; type: biochemical; conditions: PKR K410E mutant enzyme
PKR K410E, sequence (P30613 whole entry K410E): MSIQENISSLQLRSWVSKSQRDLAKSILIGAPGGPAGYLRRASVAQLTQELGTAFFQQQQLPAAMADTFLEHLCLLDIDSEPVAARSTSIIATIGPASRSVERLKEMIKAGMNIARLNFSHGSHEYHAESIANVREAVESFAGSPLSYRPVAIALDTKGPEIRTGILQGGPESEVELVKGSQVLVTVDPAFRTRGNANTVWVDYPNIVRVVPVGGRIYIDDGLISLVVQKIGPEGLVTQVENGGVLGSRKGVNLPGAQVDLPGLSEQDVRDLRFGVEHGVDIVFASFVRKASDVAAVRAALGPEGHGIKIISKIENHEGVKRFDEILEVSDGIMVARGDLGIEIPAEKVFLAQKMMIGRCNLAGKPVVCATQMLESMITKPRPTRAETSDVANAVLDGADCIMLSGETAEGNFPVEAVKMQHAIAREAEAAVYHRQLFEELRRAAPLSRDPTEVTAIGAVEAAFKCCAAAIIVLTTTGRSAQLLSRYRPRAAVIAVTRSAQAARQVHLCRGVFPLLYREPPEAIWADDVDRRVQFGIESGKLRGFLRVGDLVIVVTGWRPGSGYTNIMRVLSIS
Procedure: as §1, §2, §3, §4, §5, §6, §7, §8, §9, §10

PKR R510Q = PKR R510Q (Homo sapiens, UniProt P30613, R510Q); experiment: PKR mutant assay (AC50), PKR R510Q; type: biochemical; conditions: PKR R510Q mutant enzyme; read-out: PK R510Q AC50
PKR R510Q, sequence (P30613 whole entry R510Q): as the sequence (P30613 whole entry K410E) above, with E410K, R510Q counted along it
Procedure: as §1, §2, §3, §4, §5, §6, §7, §8, §9, §10

wild type PKR [2] = molecular target: T1, wild type PKR; experiment: Cell based ATP assay in purified red blood cells; design: endogenous in cells; host or cells: purified red blood cells from blood of healthy volunteers; conditions: RBCs, overnight at 37° C., ATP levels by Cell-Titer-Glo
Procedure: Example 16. Red Blood Cell (RBC) Purification
Fresh blood drawn from healthy volunteers into K2EDTA tubes was collected. Whole blood was pelleted by spinning at 500 g for 10 minutes. Cut transfusion bag port off of Purecell leukocyte reduction neofilter (Fisher NCO267633) one (1) inch above filter. Attach a 10 ml syringe barrel to the remaining cut tubing attached to neofilter. The plasma layer was removed from the pellet of the whole blood and the pellet was resuspended in 2× volume of phosphate buffered saline (PBS). Transfer 9 ml re-suspended blood cell pellet to prepared 10 ml syringe that is attached to the neofilter. Allow whole blood to gravity flow through filter until all fluid runs through upper tubing into filter disc. Add plunger to the syringe, remove syringe from clamp and invert the filter, then plunge air through the syringe filter system. Using a new 5 ml syringe, remove filtered RBCs from the bag by the syringe port and transfer purified RBCs to a 5 ml snap cap tube that has been incubated on ice. Spin 5 ml snap cap tube at 500 g for 10 minutes at 15 C, aspirate supernatant and resuspend in AGAM (1×PBS, 1% glucose, 170 mg/L adenine, 5.25 g/L mannitol) at a density of 4×10^9 cells/mL.
Example 17. Cell Based ATP Assay
For cell based ATP assays, the compound as described herein was prepared in 100% DMSO as a 10 mM stock. Serial dilutions (1:4) were performed in 96-well V-bottom storage plate and then added 1:100 to 96-well V-bottom plates containing AGAM. RBCs were diluted in AGAM media to a density of 1×10^7 cells/mL before added 90 μL/well to black clear bottom assay plates (final compound concentration at 0.1% DMSO concentration). Assay plates were sealed using aluminum foil seals and incubated overnight at 37° C. in a humidified chamber. ATP levels were read out using Cell-Titer-Glo (Promega).

T1 sequence (P30613 whole entry): as the sequence (P30613 whole entry K410E) above, with E410K counted along it

| SMILES | AC50 (wild type PKR [1]) [nM] | AC50 (PKR K410E) [nM] | AC50 (PKR R510Q) [nM] | AC50 (wild type PKR [2]) [nM] |
| --- | --- | --- | --- | --- |
| Cn1c2nc(Cn3cc[nH]c3=O)sc2c2cnn(Cc3cc[nH]n3)c(=O)c21 | < 300 | < 300 | < 300 | ≤ 1000 |
| Cn1c2nc(Cc3ccccn3)sc2c2cnn(Cc3ccccn3)c(=O)c21 | < 300 | < 300 | 301 to 800 | ≤ 1000 |
| Cn1c2nc(Cc3cc[nH]n3)sc2c2cnn(Cc3n[nH]cc3OC(F)(F)F)c(=O)c21 | 301 to 800 | 301 to 800 | 301 to 800 | > 1000 |
| Cn1cc(CO)c(Cn2ncc3c4sc(Cc5cc[nH]n5)nc4n(C)c3c2=O)n1 | < 300 | < 300 | < 300 | ≤ 1000 |
| COc1cn(C)nc1Cn1ncc2c3sc(Cc4cc[nH]n4)nc3n(C)c2c1=O | < 300 | < 300 | < 300 | ≤ 1000 |
| Cn1c2nc(Cc3cc[nH]n3)sc2c2cnn(Cc3c[nH]nn3)c(=O)c21 | < 300 | < 300 | < 300 | ≤ 1000 |
| Cn1c2nc(Cc3cc[nH]n3)sc2c2cnn(Cc3cc(=O)[nH][nH]3)c(=O)c21 | 301 to 800 | 301 to 800 | < 300 | > 1000 |
| Cn1cc(C(F)(F)F)c(Cn2ncc3c4sc(Cc5cc[nH]n5)nc4n(C)c3c2=O)n1 | < 300 | < 300 | < 300 | ≤ 1000 |
| Cn1c2nc(Cc3cc[nH]n3)sc2c2cnn(Cc3ccc(C(N)=O)cn3)c(=O)c21 | 301 to 800 | < 300 | > 800 | ≤ 1000 |
| Cn1c2nc(Cc3cc[nH]n3)sc2c2cnn(Cc3ccccn3)c(=O)c21 | < 300 | < 300 | < 300 | ≤ 1000 |
| Cn1cc(Cl)c(Cn2ncc3c4sc(Cc5cc[nH]n5)nc4n(C)c3c2=O)n1 | < 300 | < 300 | < 300 | ≤ 1000 |
| Cn1c2nc(Cc3nc(N)sc3F)sc2c2cnn(Cc3c[nH]nn3)c(=O)c21 | < 300 | < 300 | < 300 | ≤ 1000 |
| Cn1c2nc(Cc3cc[nH]n3)sc2c2cnn(Cc3[nH]ncc3Cl)c(=O)c21 | < 300 | < 300 | < 300 | ≤ 1000 |
| Cn1cc(C#N)c(Cn2ncc3c4sc(Cc5cc[nH]n5)nc4n(C)c3c2=O)n1 | < 300 | < 300 | < 300 | ≤ 1000 |
| CN(C)c1cccc(Cn2ncc3c4sc(Cc5cc[nH]n5)nc4n(C)c3c2=O)n1 | < 300 | < 300 | < 300 | ≤ 1000 |
| Cn1c2nc(Cc3cc[nH]n3)sc2c2cnn(Cc3ncc(N)s3)c(=O)c21 | < 300 | < 300 | < 300 | ≤ 1000 |

| SMILES | AC50 (wild type PKR [1]) [nM] | AC50 (PKR K410E) [nM] | AC50 (PKR R510Q) [nM] | AC50 (wild type PKR [2]) [nM] |
| --- | --- | --- | --- | --- |
| Cn1c2nc(Cc3cscn3)sc2c2cnn(Cc3nccs3)c(=O)c21 | < 300 | < 300 | < 300 | ≤ 1000 |
| Cn1c2nc(Cc3n[nH]cc3F)sc2c2cnn(Cc3cc[nH]n3)c(=O)c21 | < 300 | < 300 | < 300 | ≤ 1000 |
| Cn1c2nc(Cc3cc[nH]n3)sc2c2cnn(Cc3n[nH]cc3F)c(=O)c21 | < 300 | < 300 | < 300 | ≤ 1000 |
| Cc1c[nH]nc1Cn1ncc2c3sc(Cc4n[nH]cc4F)nc3n(C)c2c1=O | < 300 | < 300 | < 300 | ≤ 1000 |
| Cn1c2nc(Cc3cc[nH]n3)sc2c2cnn(Cc3cccc(N)n3)c(=O)c21 | < 300 | < 300 | < 300 | ≤ 1000 |
| Cn1c2nc(C(O)c3cc[nH]n3)sc2c2cnn(Cc3cc[nH]n3)c(=O)c21 (centres unmarked) | < 300 | < 300 | < 300 | ≤ 1000 |
| Cn1c2nc(Cn3cnnc3)sc2c2cnn(Cc3cc[nH]n3)c(=O)c21 | > 800 | > 800 | > 800 | > 1000 |
| Cn1c2nc(Cc3cc[nH]n3)sc2c2cnn(Cc3csc(CO)n3)c(=O)c21 | < 300 | < 300 | < 300 | ≤ 1000 |
| COc1ccc(Cn2ncc3c4sc(Cc5cc[nH]n5)nc4n(C)c3c2=O)nc1N | < 300 | < 300 | < 300 | ≤ 1000 |
| Cc1cccc(Cn2ncc3c4sc(Cc5cc[nH]n5)nc4n(C)c3c2=O)n1 | < 300 | < 300 | < 300 | ≤ 1000 |
| Cn1c2nc(Cc3n[nH]cc3F)sc2c2cnn(Cc3ncsc3Cl)c(=O)c21 | < 300 | < 300 | < 300 | ≤ 1000 |
| Cn1c2nc(Cc3cc[nH]n3)sc2c2cnn(Cc3n[nH]cc3O)c(=O)c21 | < 300 | < 300 | < 300 | ≤ 1000 |
| Cn1c2nc(Cc3cc[nH]n3)sc2c2cnn(Cc3n[nH]cc3C#N)c(=O)c21 | < 300 | < 300 | < 300 | ≤ 1000 |
| Cn1c2nc(Cc3cc[nH]n3)sc2c2cnn(Cc3cccc(C#N)n3)c(=O)c21 | < 300 | < 300 | < 300 | ≤ 1000 |
| COc1cccc(Cn2ncc3c4sc(Cc5cc[nH]n5)nc4n(C)c3c2=O)n1 | < 300 | < 300 | < 300 | ≤ 1000 |
| Cn1c2nc(C(=O)c3cc[nH]n3)sc2c2cnn(Cc3cccc(N)n3)c(=O)c21 | 301 to 800 | < 300 | < 300 | ≤ 1000 |
